Experimental data from patent US9586943B2, “Bilaterally-substituted tricyclic compounds for the treatment of human immunodeficiency virus type-1 (HIV-1) infection and other diseases” (CENTRO DE INVESTIGACIÓN PRINCIPE FELIPE, priority 2013, dated 2017).
Read-outs that look alike come from different tables or passages of the source.

Legend:
[1] = target: RRE RNA hairpin (internal loop IIB); test: SPR analysis of interaction with RRE RNA hairpin; format: binding, HIV-1
[2] = target: TARc hairpin; test: SPR binding specificity relative to control TARc hairpin; parameters: species or system HIV-1
Procedure: (§1) The interaction of these biphenyl and terphenyl compounds with the RRE RNA hairpin (SEQ. ID. No 1) was analysed using surface plasmon resonance (SPR) experiments(19). In addition to the RRE, two control RREc (SEQ. ID. No 2) and TARc (SEQ. ID. No 3) hairpins were also immobilised on the chips. In the RREc hairpin the internal loop forming the Rev high-affinity binding site is replaced with a G:G opposition, whereas in the TARc hairpin this loop is substituted with the HIV-1 Tat-binding UCU bulge(20). In this way, applicants could simultaneously assess the interaction of each ligand with RRE, RREc and TARc, obtaining important information about binding selectivity. In addition, the SPR methodology allows deduction of binding stoichiometries, which are likewise related to the specificity of the interaction between a ligand and a given RNA species. These are key considerations in the nucleic acid recognition field(4, 5, 14).
(§2) The Surface Plasmon Resonance (SPR) experiments were carried out at 25° C. with a Biacore T100 optical biosensor system, 4-channel streptavidin-derivatized Series S SA chips, and either 10 mM MES (pH 6.25), 150 mM NaCl, 1 mM EDTA and 0.005% P20 or 10 mM HEPES pH 7.4, 150 mM NaCl, 3 mM EDTA and 0.005% P20 aqueous solutions as mobile phases. After immobilizing approximately 300 response units (RU) of the RRE, RREc and TARc RNA hairpins on the chips, the compounds were injected during 10-minute periods at a flow rate of 20 μL/min and at concentrations generally ranging from 0.01 μM to 100.0 μM, and then allowed to dissociate for 10 more minutes. The RNA surfaces were regenerated with solutions containing 0.5 to 1 M NaCl and 10 to 100 mM NaOH, depending on the ligand.
(§3) RNA-ligand SPR equilibrium dissociation constants (Kd) were determined by fitting the sensorgrams to one-site or two-site equations:
[formula] [formula] where RU is the response in the steady-state region of the sensorgrams, C is the concentration of free compound in equilibrium with the complex, RUmax is the maximum response and RI is an offset term accounting for the bulk refractive index contribution of the sample. In these models, Kd, RUmax and RI are adjustable parameters, and the stoichiometry of each binding site was determined by comparing the fitted RUmax values with the predicted ones, calculated from the molecular weights of RNA and compound and the amount of RNA in the flow cell(32). The two-site equation was only utilized if it provided a clear curve-fitting improvement over the one-site model. […] All SPR experiments were double-referenced(33).

[3] = tested on: full-length competent HIV-1 clone; test: microbe, parasite or virus in culture; format: cell-based; settings: Human immunodeficiency virus 1, MT2, 48 h, read-out: EC50 post-integration
[4] = tested on: HIV-1 LTR promoter; format: cell-based
[5] = tested on: MT-2 cells; test: Cellular viability (CellTiter Glo); format: cell-based
[6] = Cellular viability (CellTiter Glo); format: cell-based; settings: human, MT-2 cells; 48 h, CellTiter Glo; read-out: CC50 (celular viability)
[7] = tested on: HIV-1 (NL4.3-Ren); test: microbe, parasite or virus in culture; format: cell-based; settings: for EC50: read-out: EC50 (NL4.3-Ren)
[8] = target: RRE-Rev34-50 interaction (RRE hairpin and frevp); test: Fluorescence polarization displacement assay of the RRE-Rev34-50 interaction; format: binding, HIV-1
[9] = target: RREc hairpin; test: SPR binding specificity relative to control RREc hairpin; parameters: species or system HIV-1
Procedure: as §1, §2, §3
[formula] [formula] where RU is the response in the steady-state region of the sensorgrams, C is the concentration of free compound in equilibrium with the complex, RUmax is the maximum response and RI is an offset term accounting for the bulk refractive index contribution of the sample. In these models, Kd, RUmax and RI are adjustable parameters, and the stoichiometry of each binding site was determined by comparing the fitted RUmax values with the predicted ones, calculated from the molecular weights of RNA and compound and the amount of RNA in the flow cell(32). The two-site equation was only utilized if it provided a clear curve-fitting improvement over the one-site model. The specificity of the RRE interaction was quantified by calculating the Kd(RREc)/Kd(RRE) and […] ratios. All SPR experiments were double-referenced(33).

[10] = tested on: Staphilococcus aureus (ATCC 35556); test: Disk diffusion assay (Kirby-Bauer), S. aureus; format: cell-based; settings: disk potency 20 μg, 8 mm discs, 16-18 hours at 37° C.
[11] = tested on: Escherichia coli (ATCC 53868); test: Disk diffusion assay (Kirby-Bauer), E. coli; format: cell-based; settings: disk potency 20 μg, 8 mm discs, 16-18 hours at 37° C.
[12] = tested on: RRE hairpin; test: Two-dimensional NMR (TOCSY) titration of the RRE hairpin; format: binding, HIV-1; settings: D2O, pH 6.0
[13] = tested on: RRE-Rev; test: microbe, parasite or virus in culture; format: cell-based, HIV-1
[14] = 25° C., pH 7.4, high affinity site when two-site model, footnote d compounds: ligand range 0.1-25 μM, read-out: Kd(RRE)
[15] = Human immunodeficiency virus 1, 48 h
[16] = read-out: IC50 (RRE-Rev 50% inhibitory concentration), fluorescence polarization, 25° C., 60 nM RRE and 10 nM frevp
[17] = fluorescence anisotropy, read-out: IC50 (RRE-Rev34-50 inhibition)

CCc1cc(-c2c(CCN)cc(OC)cc2CCN)ccc1-c1cc(CCN)c(OCc2ccccc2)c(CCN)c1 [IIS-758, 2,2′,2″,2′″-[4″-(Benzyloxy)-3′-ethyl-4-methoxy-(1,1′:4′,1″-terphenyl)-2,3″,5″,6-tetrayl]tetraethanamine chlorhydrate]
Kd [1, 14]: 16.7 ± 1.6 µM
Kd(TARc)/Kd(RRE) ([2]; 25° C., pH 7.4): 2.0
EC50 [3]: 17 µM
inhibition of HIV-1 LTR-mediated transcription (in words) [4]: inhibited transcription of the reporter gene
cellular toxicity (in words) [5]: no cellular toxicity
CC50 at 48 h [6]: > 100 µM
inhibition of HIV-1 replication (in words) [7]: inhibited HIV-1 replication
EC50 [7, 15]: 32.3 µM
IC50 [8, 16]: 78.1 ± 6.5 µM
Kd(RREc)/Kd(RRE) ([9]; 25° C., pH 7.4): 1.3

COc1cc(CCN)c(-c2ccc(-c3cc(CCN)c(O)c(CCN)c3)c(OC)c2)c(CCN)c1 [IIS-358, 2″,3,5,6″-Tetrakis(2-aminoethyl)-2′,4″-dimethoxy-(1,1′:4′,1″-terphenyl)-4-ol chlorhydrate]
disk susceptibility of S. aureus (diameter of the inhibition area) [10]: inactive
disk susceptibility of E. coli (diameter of the inhibition area) [11]: inactive
Kd ([1]; 25° C., pH 6.3, high affinity site when two-site model, JB-399 and IIS-530: ligand range 0.1-25 μM, read-out: Kd(RRE)): 13 ± 9 µM
Kd(TARc)/Kd(RRE) ([2]; 25° C., pH 6.3): 6.0
inhibition of HIV-1 LTR-mediated transcription (in words) [4]: inhibited transcription of the reporter gene
CC50 at 48 h [6]: > 100 µM
EC50 [7, 15]: > 100 µM
IC50 [8, 16]: 808 ± 462 µM
Kd(RREc)/Kd(RRE) ([9]; 25° C., pH 6.3): 1.9

NCCc1cc(-c2cc(CCN)c(O)c(CCN)c2)cc(CCN)c1O [JB-391, 3,3′,5,5′-tetrakis(2-aminoethyl)-[1,1′-biphenyl]-4,4′-diol]
disk susceptibility of S. aureus (diameter of the inhibition area) [10]: inactive
disk susceptibility of E. coli (diameter of the inhibition area) [11]: inactive
RRE interaction by NMR chemical shift perturbation (in words) [12]: unspecific
EC50 [3]: > 100 µM
CC50 at 48 h [6]: > 100 µM
EC50 [7, 15]: 50 to 100 µM
IC50 [8, 17]: 7.7 µM

COc1cc(CCN)c(-c2cc(C)c(-c3cc(CCN)c(O)c(CCN)c3)c(C)c2)c(CCN)c1 [IIS-420, 2″,3,5,6″-Tetrakis(2-aminoethyl)-4″-methoxy-2′,6′-dimethyl-(1,1′:4′,1″-terphenyl)-4-ol chlorhydrate]
RRE interaction by NMR chemical shift perturbation (in words) [12]: greatest RNA chemical shift variations
EC50 [3]: 5 µM
inhibition of HIV-1 LTR-mediated transcription (in words) [4]: inhibited transcription of the reporter gene
cellular toxicity (in words) [5]: no cellular toxicity
CC50 at 48 h [6]: > 100 µM
IC50 ([13]; Human immunodeficiency virus 1, read-out: IC50 (RRE-Rev), pCMV-Rev 20 ng, pDM628 500 ng/well): 10.4 ± 2.4 µM
IC50 ([13]; Human immunodeficiency virus 1, read-out: IC50 (RRE-Rev), pCMV-Rev 200 ng, pDM628 500 ng/well): 21.4 ± 6.3 µM
IC50 ([13]; Human immunodeficiency virus 1, read-out: IC50 (RRE-Rev), pCMV-Rev 500 ng, pDM628 500 ng/well): 50 to 100 µM
IC50 ([13]; Human immunodeficiency virus 1, read-out: IC50 (Rev-mediated transport of RRE-containing RNA), depends on concentration of Rev-encoding plasmid): 10.4 to 21.4 µM
inhibition of HIV-1 replication (in words) [7]: inhibited HIV-1 replication
EC50 [7, 15]: 3.4 µM
IC50 [8, 17]: 6.8 µM

COc1cc(CCN)c(-c2cc(C)c(-c3cc(CCN)c(OCc4ccccc4)c(CCN)c3)c(C)c2)c(CCN)c1 [IIS-375, 2,2′,2″,2′″-[4″-(Benzyloxy)-4-methoxy-3′,5′-dimethyl-(1,1′:4′,1″-terphenyl)-2,3″,5″,6-tetrayl]tetraethanamine chlorhydrate]
EC50 [3]: 21.4 µM
cellular toxicity (in words) [5]: no cellular toxicity
CC50 at 48 h [6]: > 100 µM
inhibition of HIV-1 replication (in words) [7]: inhibited HIV-1 replication
EC50 [7, 15]: 24.8 µM
IC50 [8, 16]: 32.2 ± 2.3 µM

CCc1cc(-c2c(CCN)cc(OC)cc2CCN)cc(CC)c1-c1cc(CCN)c(OCc2ccccc2)c(CCN)c1 [IIS-771, 2,2′,2″,2′″-(4″-(benzyloxy)-3′,5′-diethyl-4-methoxy-[1,1′:4′,1″-terphenyl]-2,3″,5″,6-tetrayl)tetraethanamine]
Kd [1, 14]: 17.6 ± 1.8 µM
Kd(TARc)/Kd(RRE) ([2]; 25° C., pH 7.4): 1.7
EC50 [3]: > 100 µM
cellular toxicity (in words) [5]: no cellular toxicity
CC50 at 48 h [6]: > 100 µM
inhibition of HIV-1 replication (in words) [7]: inhibited HIV-1 replication
EC50 [7, 15]: 42.6 µM
IC50 [8, 16]: 77.2 ± 15.5 µM
Kd(RREc)/Kd(RRE) ([9]; 25° C., pH 7.4): 1.0

NC[C@@H]1O[C@H](O[C@H]2[C@@H](O)[C@H](O[C@@H]3[C@@H](O)[C@H](N)C[C@H](N)[C@H]3O[C@H]3O[C@H](CN)[C@@H](O)[C@H](O)[C@H]3N)O[C@@H]2CO)[C@H](N)[C@@H](O)[C@@H]1O [Neomycin B, neomycin B, reference compound]
disk susceptibility of S. aureus (diameter of the inhibition area) [10]: 12.8 ± 1.9
disk susceptibility of E. coli (diameter of the inhibition area) [11]: 15.2 ± 2.1
RRE interaction by NMR chemical shift perturbation (in words) [12]: unspecific
Kd ([1]; higher affinity site, read-out: equilibrium dissociation constant Kd (RRE)): 2.4 ± 1.1 µM
Kd(TARc)/Kd(RRE) [2]: 2.3
CC50 ([5]; 48 h, CellTiter Glo, read-out: CC50 (celular viability)): > 100 µM
EC50 ([7]; HIV-1 infection assay, 48 h post-infection): > 100 µM
Ki ([8]; calculated from IC50, assuming one ligand molecule displaces frevp, read-out: Ki inhibition constant): 2 ± 0.2 µM
Kd(RREc)/Kd(RRE) [9]: 0.9
